Source: patent publication US12194082B2, “Compositions and methods for treatment of homocystinuria” (THE REGENTS OF THE UNIVERSITY OF COLORADO, priority 2016, dated 2025)

Key:
[1] = test system: homocysteine, cystathionine, cysteine, lanthionine, and homolanthionine; assay: Pharmacodynamics (plasma sulfur amino acid metabolites) in monkeys; format: in vivo, cynomolgus monkeys (Macaca fascicularis); parameters: Cystathionine plasma level / Lanthionine plasma level / Homolanthionine plasma level: unit not given here; settings: for Homolanthionine plasma level / Lanthionine plasma level / Cystathionine plasma level: mean ± SEM
Experimental: (§1) Plasma metabolites homocysteine, cystathionine and cysteine were determined by stable-isotope-dilution liquid chromatography mass spectrometry as previously described in (Allen et al., 1993, Metabolism, 42: 1448-1460). Measurements of total non-protein bound homocysteine and other aminothiols as well as of amino acids in tissue were performed as described in (Maclean et al., 2010b. Mol. Genet. Metab. 101, 153-162). Metabolites were determined by stable-isotope-dilution liquid chromatography mass spectrometry.

Hcy, Cys, Cth, and Met = assay: Metabolite levels in plasma and tissues of KO mice at 18-19 days of age; format: in vivo
Experimental: as §1
Plasma and tissue metabolites were measured in the groups of wild-type mice (control), untreated homozygous −/− affected KO mice, and 400MA PEG-htCBS C15S-treated KO mice. The treated group was administered subcutaneous injections of 400MA PEG-htCBS C15S 3 times per week at a dose of 7.5 mg/kg from the age of 2 days. Plasma and tissues were harvested 24 hours after the last injection.

[2] = Radiometric CBS activity assay of monkey plasma samples; format: in vivo, cynomolgus monkey
From the text: Tables 12-14 below show the comparison of C15S/ME-200GS specific activity determined by LC/MS/MS using D,L-homocysteine M+4 as a substrate and by radiometric assay using L-[…] as a substrate. The enzyme's specific activity is presented in mU/μl. The “n.d.” stands for “not determined”.

[3] = test system: I278T −/− homozygous mice; assay: Facial alopecia in I278T mice; format: in vivo, mouse; settings: 3 times per week, start W24-W28, up to about 1 year
Experimental: 3 W old mice not showing any signs of facial alopecia were split into 2 groups. The first group (n=3 males) was injected with 7.5 mg/kg three times per week with 200MA0B PEG-htCBS C15S for a period of 6 weeks. Physical look was recorded before the experiment and monitored weekly, then bi-weekly after the 6 W injection regimen. Metabolite levels were checked before the experiment and 24 hours after the last injection, i.e. after the 6 W injection regimen.
The second group (n=3; 2 males, 1 female) was continuously injected with 7.5 mg/kg of 200MA0B PEG-htCBS C15S administered subcutaneously from 3 W of age until 41 weeks of age. Weight was initially monitored weekly. Physical look was recorded before the experiment and was monitored weekly or bi-weekly after the initial 6 W injection regimen. Metabolite levels were checked before the experiment and 24 hours after the last injection of initial 6 W injection regiment and then followed weekly or bi-weekly.
The I278T mice, which were at least 120D (W17) old and had visible, fully developed facial alopecia, were split into 2 groups. […] Metabolite levels were determined prior to the treatment initiation and measured during the study 24 hours after the injection, and weight and physical look were initially monitored weekly, and later bi-weekly.

[4] = 7.5 mg/kg SC 3x/week from day 2, 24 hours after last injection, mean ± SEM
[5] = 7.5 mg/kg SC 3x/week from day 2, mean ± SEM

## 20NHS PEG-htCBS C15S: htCBS C15S PEGylated with ME-200GS PEG (20 kDa linear NHS ester-activated PEG)
[1]; 1 mg/kg SC every 72 h, 176 h
  Homolanthionine plasma level: 64 ± 7
  Lanthionine plasma level: 46 ± 9
[1]; 1 mg/kg SC every 72 h, 176 h after first injection
  Cystathionine plasma level: 4010 ± 236
[1]; 1 mg/kg SC every 72 h, 392 h
  Cystathionine plasma level: 4272 ± 333
  Homolanthionine plasma level: 72 ± 5
  Lanthionine plasma level: 69 ± 7
[1]; 3 mg/kg SC every 72 h, 176 h
  Cystathionine plasma level: 5629 ± 284
  Homolanthionine plasma level: 64 ± 4
  Lanthionine plasma level: 103 ± 7
[1]; 3 mg/kg SC every 72 h, 392 h
  Cystathionine plasma level: 5893 ± 390
  Homolanthionine plasma level: 60 ± 10
  Lanthionine plasma level: 109 ± 9
[1]; 10 mg/kg SC every 72 h, 176 h
  Cystathionine plasma level: 7098 ± 12
  Homolanthionine plasma level: 50 ± 3
  Lanthionine plasma level: 281 ± 43
[1]; 10 mg/kg SC every 72 h, 392 h
  Cystathionine plasma level: 9318 ± 288
  Homolanthionine plasma level: 53 ± 4
  Lanthionine plasma level: 353 ± 38
[1]; 8 hours after IV, 8 and 48 hours after SC administration
  plasma Cth: significant spikes
[1]; single IV or SC dose, healthy wild-type monkeys
  plasma levels of Hcy and Cys: No significant changes
Hcy, Cys, Cth, and Met; [4]
  Cystathionine in plasma: 133.2 ± 9.1 µM
  Cysteine in plasma: 211.7 ± 11.5 µM
  Homocysteine in plasma: 52.8 ± 6.8 µM
  Methionine in plasma: 99.2 ± 5.4 µM
Hcy, Cys, Cth, and Met; [5]
  Cystathionine in brain tissue: 8.5 ± 1.1 nmols/g
  Cystathionine in kidney tissue: 256.0 ± 77.5 nmols/g
  Cystathionine in liver tissue: 18.9 ± 1.8 nmols/g
  Cysteine in brain tissue: 56.8 ± 3.0 nmols/g
  Cysteine in kidney tissue: 282.8 ± 17.1 nmols/g
  Cysteine in liver tissue: 205.2 ± 27.4 nmols/g
  Homocysteine in brain tissue: 1.1 ± 0.1 nmols/g
  Homocysteine in kidney tissue: 6.76 ± 4.42 nmols/g
  Homocysteine in liver tissue: 22.4 ± 3.4 nmols/g
  Methionine in brain tissue: 68.6 ± 4.7 nmols/g
  Methionine in kidney tissue: 53.3 ± 2.9 nmols/g
  Methionine in liver tissue: 25.5 ± 3.4 nmols/g
[2]; single IV 2 mg/kg, 0.083 h
  specific activity in plasma, Radiometric assay: 95.741 mU/μl
[2]; single IV 2 mg/kg, 0.167 h
  specific activity in plasma, Radiometric assay: 90.049 mU/μl
[2]; single IV 2 mg/kg, 0.25 h
  specific activity in plasma, Radiometric assay: 88.891 mU/μl
[2]; single IV 2 mg/kg, 0.5 h
  specific activity in plasma, Radiometric assay: 85.342 mU/μl
[2]; single IV 2 mg/kg, 1 h
  specific activity in plasma, Radiometric assay: 80.992 mU/μl
[2]; single IV 2 mg/kg, 2 h
  specific activity in plasma, Radiometric assay: 78.984 mU/μl
[2]; single IV 2 mg/kg, 4 h
  specific activity in plasma, Radiometric assay: 77.809 mU/μl
[2]; single IV 2 mg/kg, 8 h
  specific activity in plasma, Radiometric assay: 70.357 mU/μl
[2]; single IV 2 mg/kg, 24 h
  specific activity in plasma, Radiometric assay: 55.865 mU/μl
[2]; single IV 2 mg/kg, 72 h
  specific activity in plasma, Radiometric assay: 31.601 mU/μl
[2]; single IV 2 mg/kg, 120 h
  specific activity in plasma, Radiometric assay: 18.908 mU/μl
[2]; single IV 2 mg/kg, 192 h
  specific activity in plasma, Radiometric assay: 9.182 mU/μl
[2]; single SC 2 mg/kg, 1 h
  specific activity in plasma, Radiometric assay: 2.842 mU/μl
[2]; single SC 2 mg/kg, 2 h
  specific activity in plasma, Radiometric assay: 5.801 mU/μl
[2]; single SC 2 mg/kg, 4 h
  specific activity in plasma, Radiometric assay: 11.207 mU/μl
[2]; single SC 2 mg/kg, 8 h
  specific activity in plasma, Radiometric assay: 22.164 mU/μl
[2]; single SC 2 mg/kg, 24 h
  specific activity in plasma, Radiometric assay: 40.293 mU/μl
[2]; single SC 2 mg/kg, 48 h
  specific activity in plasma, Radiometric assay: 36.658 mU/μl
[2]; single SC 2 mg/kg, 72 h
  specific activity in plasma, Radiometric assay: 30.670 mU/μl
[2]; single SC 2 mg/kg, 96 h
  specific activity in plasma, Radiometric assay: 23.536 mU/μl
[2]; single SC 2 mg/kg, 120 h
  specific activity in plasma, Radiometric assay: 18.608 mU/μl
[2]; single SC 2 mg/kg, 192 h
  specific activity in plasma, Radiometric assay: 9.496 mU/μl
[2]; single SC 2 mg/kg, 240 h
  specific activity in plasma, Radiometric assay: 5.963 mU/μl
[2]; single SC 2 mg/kg, 336 h
  specific activity in plasma, Radiometric assay: 2.441 mU/μl
[2]; single SC 6 mg/kg, 1 h
  specific activity in plasma, Radiometric assay: 3.739 mU/μl
[2]; single SC 6 mg/kg, 2 h
  specific activity in plasma, Radiometric assay: 9.180 mU/μl
[2]; single SC 6 mg/kg, 4 h
  specific activity in plasma, Radiometric assay: 22.263 mU/μl
[2]; single SC 6 mg/kg, 8 h
  specific activity in plasma, Radiometric assay: 50.194 mU/μl
[2]; single SC 6 mg/kg, 24 h
  specific activity in plasma, Radiometric assay: 111.081 mU/μl
[2]; single SC 6 mg/kg, 48 h
  specific activity in plasma, Radiometric assay: 109.292 mU/μl
[2]; single SC 6 mg/kg, 72 h
  specific activity in plasma, Radiometric assay: 95.722 mU/μl
[2]; single SC 6 mg/kg, 96 h
  specific activity in plasma, Radiometric assay: 73.072 mU/μl
[2]; single SC 6 mg/kg, 120 h
  specific activity in plasma, Radiometric assay: 56.427 mU/μl
[2]; single SC 6 mg/kg, 192 h
  specific activity in plasma, Radiometric assay: 31.513 mU/μl
[2]; single SC 6 mg/kg, 240 h
  specific activity in plasma, Radiometric assay: 19.203 mU/μl
[2]; single SC 6 mg/kg, 336 h
  specific activity in plasma, Radiometric assay: 5.807 mU/μl
[3]
  animals responding (reversal of fully developed facial alopecia): 4 out of 4
